Experimental findings from the SangsterLogP compilation are described below.

A short description of data set [1]: method code SF-TN, from DOI: 10.3891/acta.chem.scand.05-0774.
Data set [2] can be described thus: method code SF-CR, from DOI: 10.3891/acta.chem.scand.05-0774.

The structures appear in SMILES notation.

`O=C(O)CCCCCCCC(=O)O` returned a log partition coefficient (logP) in data set [1] of 1.59. Turning to `CC(Br)C(=O)O` (centres undefined), in data set [1], the logP was found to be 0.92. `CC(O)CNCC(C)O` (centres undefined) had a logP of -0.82. In data set [2], `CC(O)C(C)O` (centres undefined) showed a logP of -0.92. Regarding `CCC(Br)C(=O)O` (centres undefined), in data set [1], the logP worked out at 1.42. Take `COC(C)=O`: the logP in data set [2] amounted to 0.18.

Compound `CC(C)(O)C(=O)O` gave a logP in data set [1] of -0.36. Regarding `CC(O)CN` (centres undefined), the logP was -0.96.

Turning to `COCOC`, the logP in data set [2] was found to be 0.

In turn, `O=C(O)CBr` yielded a logP in data set [1] of 0.41. As to `OCCNCCO`, the logP was -1.43. On the same count and under the same terms, the same measure for `C1CNCCN1`: -1.17.

In the case of `NCCO`, the logP is -1.31.

The compound `O=C(O)CC(O)C(=O)O` (centres undefined) showed a logP in data set [1] of -1.26.
